From patent US10898481B2 (priority 2018, dated 2021)

How the values were obtained:
[1] = molecular target: hA2a/CHO (Homo sapiens (Human), UniProt P29274); assay: cAMP inhibition assay in hA2a/CHO cells, 10 μM adenosine; format: cell-based; settings: read-out: cAMP & FLIPR IC50 (nM) hA2a;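 note: compounds added to cells 30 min ahead of adenosine, then a further 30 min at 37 °C with adenosine before cAMP detection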
Method: (§1) hA2a/CHO, hA2b/CHO, hA3/CHO and mA2a/CHO (Genscript) were plated at 5×10^3 cells/well into 384-well polystyrene plates at the day of experiment. Compounds were pre-incubated with cells for 30 min at 37° C., 5% CO2. Then 10 μM adenosine was added to the cells and incubated for 30 min at 37° C., 5% CO2. Detection reagent (CISBIO) was added and the plates were incubated for 60 min at room temperature. The signal was captured by Envision.

[2] = molecular target: hA2b/CHO (Homo sapiens (Human), UniProt P29275); assay: cAMP inhibition assay in hA2b/CHO cells, 10 μM adenosine; format: cell-based; settings: read-out: cAMP & FLIPR IC50 (nM) hA2b;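 note: cells exposed to compound 30 min at 37 °C, then stimulated with adenosine a further 30 min, cAMP read after 60 min at room temperature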
Method: as §1

[3] = molecular target: mA2a/CHO (Mus musculus (Mouse), UniProt Q60613); assay: cAMP inhibition assay in mA2a/CHO cells, 10 μM adenosine; format: cell-based; settings: read-out: cAMP & FLIPR IC50 (nM) mA2a;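 note: compounds preincubated 30 min at 37 °C before the adenosine challenge, then 30 min further stimulation, readout after 60 min detection reagent incubation at room temperature in 384-well plates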
Method: as §1

[4] = molecular target: hADORA1/CHO (hA1 expressing) cells (Homo sapiens (Human), UniProt P30542); assay: cell-based; settings: FLIPR inhibition, 10 μM adenosine, read-out: cAMP & FLIPR IC50 (nM) hA1
Sequence of hADORA1/CHO (hA1 expressing) cells (P30542 whole entry): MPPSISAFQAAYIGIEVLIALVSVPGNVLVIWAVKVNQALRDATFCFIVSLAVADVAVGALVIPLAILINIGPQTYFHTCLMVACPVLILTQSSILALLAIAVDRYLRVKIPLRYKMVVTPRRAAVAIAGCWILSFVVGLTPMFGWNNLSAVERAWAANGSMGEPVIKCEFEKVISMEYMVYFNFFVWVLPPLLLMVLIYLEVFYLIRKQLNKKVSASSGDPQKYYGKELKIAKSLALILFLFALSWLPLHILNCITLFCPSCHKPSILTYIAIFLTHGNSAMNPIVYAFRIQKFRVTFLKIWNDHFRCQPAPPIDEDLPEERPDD

Sequence of hA2a/CHO (P29274 whole entry): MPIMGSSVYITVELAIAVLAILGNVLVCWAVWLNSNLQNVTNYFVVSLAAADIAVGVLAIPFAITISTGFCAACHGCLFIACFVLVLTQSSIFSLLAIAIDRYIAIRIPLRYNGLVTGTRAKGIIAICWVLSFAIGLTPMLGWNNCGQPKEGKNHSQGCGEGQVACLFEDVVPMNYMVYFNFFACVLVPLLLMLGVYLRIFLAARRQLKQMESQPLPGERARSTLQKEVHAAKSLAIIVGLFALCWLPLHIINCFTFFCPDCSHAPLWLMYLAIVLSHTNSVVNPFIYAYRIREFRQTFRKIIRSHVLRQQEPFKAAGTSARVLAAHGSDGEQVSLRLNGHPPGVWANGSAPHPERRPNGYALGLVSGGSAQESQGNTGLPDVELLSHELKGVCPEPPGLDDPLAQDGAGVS
Sequence of hA2b/CHO (P29275 whole entry): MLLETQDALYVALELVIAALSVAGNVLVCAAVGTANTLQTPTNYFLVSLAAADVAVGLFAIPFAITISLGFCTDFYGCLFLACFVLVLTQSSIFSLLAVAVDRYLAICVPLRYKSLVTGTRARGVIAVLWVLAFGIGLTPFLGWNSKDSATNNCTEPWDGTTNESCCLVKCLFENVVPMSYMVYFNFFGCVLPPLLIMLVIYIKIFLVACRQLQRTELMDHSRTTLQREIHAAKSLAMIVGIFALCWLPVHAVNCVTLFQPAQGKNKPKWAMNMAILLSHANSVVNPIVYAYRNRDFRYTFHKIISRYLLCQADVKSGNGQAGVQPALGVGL
Sequence of mA2a/CHO (Q60613 whole entry): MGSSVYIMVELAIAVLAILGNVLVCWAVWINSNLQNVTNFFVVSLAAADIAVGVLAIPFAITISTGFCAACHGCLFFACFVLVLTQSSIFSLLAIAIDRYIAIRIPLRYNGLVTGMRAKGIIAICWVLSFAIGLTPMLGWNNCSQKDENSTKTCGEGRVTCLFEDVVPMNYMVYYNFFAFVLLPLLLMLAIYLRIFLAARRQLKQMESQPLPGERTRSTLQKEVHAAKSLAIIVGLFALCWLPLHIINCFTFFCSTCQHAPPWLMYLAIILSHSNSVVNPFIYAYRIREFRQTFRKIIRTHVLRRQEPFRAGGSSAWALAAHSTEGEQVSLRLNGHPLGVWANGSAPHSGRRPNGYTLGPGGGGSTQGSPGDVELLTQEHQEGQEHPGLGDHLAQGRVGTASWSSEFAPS

SMILES | IC50 [1] [nM] | IC50 [2] [nM] | IC50 [3] [nM] | IC50 [4] [nM]
COc1ncccc1CNC(=O)c1nc(-c2cc(C)nc(C)c2)c(-c2ccc(F)cc2)nc1N [Example 66, 3-amino-6-(2,6-dimethylpyridin-4-yl)-5-(4-fluorophenyl)-N-((2-methoxypyridin-3-yl)methyl)pyrazine-2-carboxamide] | 107 | ≥ 10000 | 730 | –
CNCCOc1cccnc1CNC(=O)c1nc(-c2ccc3ncn(C)c3c2)c(-c2ccc(F)cc2)nc1N [Example 115, 3-amino-5-(4-fluorophenyl)-6-(1-methyl-1H-1,3-benzodiazol-6-yl)-N-([3-[2-(methylamino)ethoxy]pyridin-2-yl]methyl)pyrazine-2-carboxamide] | – | 596 | 12 | –
Cc1cnc2ccc(-c3nc(C(=O)NC[C@@H]4CCCN4C)c(N)nc3-c3ccc(F)cc3)cn12 [Example 139, (S)-3-amino-5-(4-fluorophenyl)-6-(3-methylimidazo[1,2-a]pyridin-6-yl)-N-((1-methylpyrrolidin-2-yl)methyl) pyrazine-2-carboxamide] | – | 932 | 66 | –
COc1ccccc1CNC(=O)c1nc(-c2ccc(=O)n(C(C)C)c2)c(-c2ccc(F)cc2)nc1N [Example 70, 3-amino-5-(4-fluorophenyl)-6-(1-isopropyl-6-oxo-1,6-dihydropyridin-3-yl)-N-(2-methoxybenzyl)pyrazine-2-carboxamide] | 10 | ≥ 10000 | 5.2 | –
COc1ccccc1CNC(=O)c1nc(-c2ccc(=O)n(C)c2)c(-c2ccc(F)cc2)nc1N [Example 67, 3-amino-5-(4-fluorophenyl)-N-(2-methoxybenzyl)-6-(1-methyl-6-oxo-1,6-dihydropyridin-3-yl)pyrazine-2-carboxamide] | 6.4 | 67 | 25 | –
Cc1cc(-c2nc(C(=O)NCc3ccccc3C(F)(F)F)c(N)nc2-c2ccc(F)cc2)cc(C)n1 [Example 53, 3-amino-6-(2,6-dimethylpyridin-4-yl)-5-(4-fluorophenyl)-N-(2-(trifluoromethyl)benzyl)pyrazine-2-carboxamide] | 60 | ≥ 10000 | 529 | –
Cc1cc(-c2nc(C(=O)NCc3ccccc3OC(F)(F)F)c(N)nc2-c2ccc(F)cc2)cc(C)n1 [Example 65, 3-amino-6-(2,6-dimethylpyridin-4-yl)-5-(4-fluorophenyl)-N-(2-(trifluoromethoxy)benzyl)pyrazine-2-carboxamide] | 19 | – | 50 | –
Nc1nc(-c2ccc(F)cc2)c(-c2ccc(=O)n(C3COC3)c2)nc1C(=O)NCc1c(F)cccc1F [Example 77] | 17 | 358 | 26 | –
Cc1cnc2ccc(-c3nc(C(=O)NC[C@H]4CCCN4C)c(N)nc3-c3ccc(F)cc3)cn12 [Example 138, 3-amino-5-(4-fluorophenyl)-6-[3-methylimidazo[1,2-a]pyridin-6-yl]-N-[[(2R)-1-methylpyrrolidin-2-yl]methyl]pyrazine-2-carboxamide] | – | 959 | 70 | –
Cc1cnc2ccc(-c3nc(C(=O)NC(C)C4CCCO4)c(N)nc3-c3ncco3)cn12 (single isomer, unassigned; isomer 4) [Example 258, 3-amino-6-(3-methylimidazo[1,2-a]pyridin-6-yl)-5-(oxazol-2-yl)-N-(1-(tetrahydrofuran-2-yl)ethyl)pyrazine-2-carboxamide (isomer 4)] | 8.1 | – | – | 2510
Cc1cnc2ccc(-c3nc(C(=O)NCC4CCCN(C)C4=O)c(N)nc3-c3ncco3)cn12 (single isomer, unassigned; isomer 2) [Example 254, 3-amino-N-((1-methyl-2-oxopiperidin-3-yl)methyl)-6-(3-methylimidazo[1,2-a]pyridin-6-yl)-5-(oxazol-2-yl) pyrazine-2-carboxamide (isomer 2)] | 0.7 | – | – | 99
Cc1cnc2ccc(-c3nc(C(=O)NCC4CCN(C)C4=O)c(N)nc3-c3ccc(F)cc3)cn12 (single isomer, unassigned; isomer 1) [Example 267, 3-amino-5-(4-fluorophenyl)-N-((1-methyl-2-oxopyrrolidin-3-yl)methyl)-6-(3-methylimidazo[1,2-a]pyridin-6-yl) pyrazine-2-carboxamide (isomer 1)] | 0.9 | – | – | 2.8
Cc1cnc2ccc(-c3nc(C(=O)NCC4CCCN4C)c(N)nc3-c3ncco3)cn12 (single isomer, unassigned) [Example 120] | – | 775 | 167 | –
Cc1cnc2ccc(-c3nc(C(=O)NCc4cccc(N5CCOCC5)n4)c(N)nc3-c3ncco3)cn12 [Example 276, 3-amino-6-[3-methylimidazo[1,2-a]pyridin-6-yl]-N-[[6-(morpholin-4-yl)pyridin-2-yl]methyl]-5-(1,3-oxazol-2-yl)pyrazine-2-carboxamide] | 3.1 | – | – | 3070
Cc1cnc2ccc(-c3nc(C(=O)NC[C@H]4CC(C)(C)CN4C)c(N)nc3-c3ncco3)cn12 (single isomer, unassigned; isomer 2) [Example 230, 3-amino-6-(3-methylimidazo[1,2-a]pyridin-6-yl)-5-(oxazol-2-yl)-N-((1,4,4-trimethylpyrrolidin-2-yl)methyl) pyrazine-2-carboxamide (isomer 2)] | 15 | – | – | 6000
Cc1cnc2ccc(-c3nc(C(=O)N[C@H]4CCOC4)c(N)nc3-c3ncco3)cn12 [Example 277, (S)-3-amino-6-(3-methylimidazo[1,2-a]pyridin-6-yl)-5-(oxazol-2-yl)-N-(tetrahydrofuran-3-yl)pyrazine-2-carboxamide] | 12 | – | – | 6560
Cc1cnc2ccc(-c3nc(C(=O)NCc4cccc(N5CCC(N(C)C)C5)n4)c(N)nc3-c3ncco3)cn12 (single isomer, unassigned) [Cmpd. 232, 3-amino-N-((6-(3-(dimethylamino)pyrrolidin-1-yl)pyridin-2-yl)methyl)-6-(3-methylimidazo[1,2-a]pyridin-6-yl)-5-(oxazol-2-yl)pyrazine-2-carboxamide] | 0.5 | – | – | 1500
Cc1cnc2ccc(-c3nc(C(=O)NC(C)C4CCCO4)c(N)nc3-c3ncco3)cn12 (single isomer, unassigned; isomer 2) [Example 262, 3-amino-6-(3-methylimidazo[1,2-a]pyridin-6-yl)-5-(oxazol-2-yl)-N-(1-(tetrahydrofuran-2-yl)ethyl)pyrazine-2-carboxamide (isomer 2)] | 12 | – | – | 11600
Cc1cnc2ccc(-c3nc(C(=O)NCC4CCCN(C)C4=O)c(N)nc3-c3ncco3)cn12 (single isomer, unassigned; isomer 1) [Example 263, 3-amino-N-((1-methyl-2-oxopiperidin-3-yl)methyl)-6-(3-methylimidazo[1,2-a]pyridin-6-yl)-5-(oxazol-2-yl) pyrazine-2-carboxamide (isomer 1)] | 0.4 | – | – | 103
Cc1cnc2ccc(-c3nc(C(=O)NCC(C4CC4)N(C)C)c(N)nc3-c3ncco3)cn12 (single isomer, unassigned; isomer 2) [Example 269, 3-amino-N-(2-cyclopropyl-2-(dimethylamino)ethyl)-6-(3-methylimidazo[1,2-a]pyridin-6-yl)-5-(oxazol-2-yl) pyrazine-2-carboxamide (isomer 2)] | 37 | – | – | > 10000
Cc1cnc2ccc(-c3nc(C(=O)NCC4CCCN4C)c(N)nc3-c3ncco3)cn12 (single isomer, unassigned) [Example 121] | – | 747 | 204 | –
Cc1cnc2ccc(-c3nc(C(=O)NCc4cccc(N5CC(CN(C)C)C5)n4)c(N)nc3-c3ncco3)cn12 [Cmpd. 261, 3-amino-N-((6-(3-((dimethylamino)methyl)azetidin-1-yl)pyridin-2-yl)methyl)-6-(3-methylimidazo[1,2-a]pyridin-6-yl)-5-(oxazol-2-yl)pyrazine-2-carboxamide] | 0.4 | – | – | 158
Cc1cnc2ccc(-c3nc(CNC(=O)[C@H]4CCCN4C)c(N)nc3-c3cccc(F)c3)cn12 [Example 278, (R)—N-((3-amino-5-(3-fluorophenyl)-6-(3-methylimidazo[1,2-a]pyridin-6-yl)pyrazin-2-yl)methyl)-1-methylpyrrolidine-2-carboxamide] | 0.4 | – | – | 12
Cc1cnc2ccc(-c3nc(CNC(=O)C4CCCO4)c(N)nc3-c3ccc(F)cc3)cn12 (stereo in doubt) [Cmpd. 268, (2S)—N-[[3-amino-5-(4-fluorophenyl)-6-[3-methyl-imidazo-[1,2-a]pyridin-6-yl]pyrazin-2-yl]methyl]oxolane-2-carboxamide] | 0.2 | – | – | 6.7
Cc1cnc2ccc(-c3nc(C(=O)NCCn4ccccc4=O)c(N)nc3-c3ncco3)cn12 [Example 237, 3-amino-6-(3-methylimidazo[1,2-a]pyridin-6-yl)-5-(oxazol-2-yl)-N-(2-(2-oxopyridin-1(2H)-yl)ethyl)pyrazine-2-carboxamide] | 5.1 | – | – | 71
Cc1cnc2ccc(-c3nc(C(=O)NC(C)C4CCCO4)c(N)nc3-c3ncco3)cn12 (single isomer, unassigned; isomer 1) [Example 266, 3-amino-6-(3-methylimidazo[1,2-a]pyridin-6-yl)-5-(oxazol-2-yl)-N-(1-(tetrahydrofuran-2-yl)ethyl)pyrazine-2-carboxamide (isomer 1)] | 7.6 | – | – | > 10000
Cc1cnc2ccc(-c3nc(C(=O)NCCN(C)C4CCOC4)c(N)nc3-c3ncco3)cn12 (racemic) [Cmpd. 233, rac-3-amino-N-(2-(methyl(tetrahydrofuran-3-yl)amino)ethyl)-6-(3-methylimidazo[1,2-a]pyridin-6-yl)-5-(oxazol-2-yl)pyrazine-2-carboxamide] | 38 | – | – | 1910
